# Results reported in ChEMBL document CHEMBL1130752, “Quaternary substituted PDE IV inhibitors II: the synthesis and in vitro evaluation of a novel series of gamma-lactams” (Bioorg Med Chem Lett, 1998).
# Experiments:
# Phosphodiesterase 4 [1] = target: T1, Phosphodiesterase 4 (Homo sapiens, UniProt P27815+Q08499+Q07343+Q08493); assay: In vitro inhibition of phosphodiesterase (PDE IV) from guinea pig macrophages.; format: protein assay, Cavia porcellus; conditions: target entry is the homologue from another species
# Phosphodiesterase 4 [2] = target: T1, Phosphodiesterase 4; assay: Affinity for phosphodiesterase (PDE IV) in guinea pig brain membrane using [3H]rolipram displacement.; format: cell membranes, Cavia porcellus; conditions: target entry is the homologue from another species
SMILES,IC50 (Phosphodiesterase 4 [1]) [nM],Ki (Phosphodiesterase 4 [2]) [nM]
COc1ccc(C2(CC#N)CCN(C(=O)OC(C)(C)C)C2=O)cc1OC1CCCC1 (stereo unspecified),82,476
COc1ccc(C2CCNC2=O)cc1OC1CCCC1 (stereo unspecified),5000,> 3745
COc1ccc(C2(Cc3ccncc3)CCN(Cc3ccncc3)C2=O)cc1OC1CCCC1 (stereo unspecified),401,443
COC(=O)N1CCC(Cc2ccncc2)(c2ccc(OC)c(OC3CCCC3)c2)C1=O (stereo unspecified),293,822
COc1ccc(C2(Cc3cc[n+]([O-])cc3)CCN(C(=O)OC(C)(C)C)C2=O)cc1OC1CCCC1 (stereo unspecified),59,217
COc1ccc(C2(Cc3cc[n+]([O-])cc3)CCNC2=O)cc1OC1CCCC1 (stereo unspecified),1600,2247
COc1ccc(C2(Cc3ccncc3)CCN(CCC(C)C)C2=O)cc1OC1CCCC1 (stereo unspecified),81,80
COc1ccc(C2(Cc3ccncc3)CCN(Cc3ccc4ccccc4c3)C2=O)cc1OC1CCCC1 (stereo unspecified),17,4.3
COc1ccc(C2(Cc3ccncc3)CCN(CC3CCCCC3)C2=O)cc1OC1CCCC1 (stereo unspecified),48,43
COc1ccc(C2(Cc3ccncc3)CCN(C(=O)OC(C)C)C2=O)cc1OC1CCCC1 (stereo unspecified),44,113
CCOC(=O)N1CCC(Cc2ccncc2)(c2ccc(OC)c(OC3CCCC3)c2)C1=O (stereo unspecified),137,139
COc1ccc(C2(Cc3ccccc3)CCN(C(=O)OC(C)(C)C)C2=O)cc1OC1CCCC1 (stereo unspecified),220,2996
COc1ccc(C2(Cc3ccncc3)CCN(S(=O)(=O)c3ccc(C)cc3)C2=O)cc1OC1CCCC1 (stereo unspecified),61,217
COc1ccc(C2CCN(C(=O)OC(C)(C)C)C2=O)cc1OC1CCCC1 (stereo unspecified),700,337
COc1ccc(C2(Cc3ccncc3)CCN(C(=O)N(C)C)C2=O)cc1OC1CCCC1 (stereo unspecified),319,274
COc1ccc(C2(Cc3ccncc3)CCN(C(=O)OC(C)(C)C)C2)cc1OC1CCCC1 (stereo unspecified),807,470
COc1ccc(C2(Cc3ccncc3)CCNC2=O)cc1OC1CCCC1 (stereo unspecified),800,210
COc1ccc(C2(Cc3ccncc3)CCN(C(=O)OC(C)(C)C)C2=O)cc1OC1CCCC1 (stereo unspecified),6.3,7.5
COc1ccc(C2(Cc3ccncc3)CCN(Cc3cccc4ccccc34)C2=O)cc1OC1CCCC1 (stereo unspecified),293,822
COc1ccc(C2(Cc3ccncc3)CCN(Cc3ccccc3)C2=O)cc1OC1CCCC1 (stereo unspecified),56,51
CCCCN1CCC(Cc2ccncc2)(c2ccc(OC)c(OC3CCCC3)c2)C1=O (stereo unspecified),123,137
COc1ccc(C2(Cc3ccncc3)CCN(C(C)=O)C2=O)cc1OC1CCCC1 (stereo unspecified),461,367
COc1ccc(C2(Cc3ccccc3)CCNC2=O)cc1OC1CCCC1 (stereo unspecified),1000,787
